Measurements taken from patent publication US20250136558A1, “PYRAZINE COMPOUNDS AS IRREVERSIBLE INHIBITORS OF FLT3” (BIOMEA FUSION, INC., priority 2021, published 2025).

Assays:
Type in all cases: cell-based
MV-4-11 = assay: Proliferation inhibition (CellTiter-Glo) in MV-4-11 cells; details: Homo sapiens, MV4-11, 96 h, MV-4-11 AML cells, homozygous FLT3-ITD, IC50 (4 days)
In short: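 MV-4-11 human AML cells (homozygous FLT3-ITD) grown in RPMI-1640 with 10% heat-inactivated FBS and 1% Pen-Strep were seeded at about 10,000 cells per 200 μL in 96 well plates. Two hours later, compounds were dispensed at eight concentrations in duplicate. Viability was measured by CellTiter-Glo luminescence, and IC50 values came from four-parameter logistic non-linear regression against untreated cells (0.2% DMSO).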

K-562 = assay: Proliferation inhibition (CellTiter-Glo) in K-562 cells; details: Homo sapiens, K562, 96 h, K-562 CML cells, no FLT3 mutations, IC50 (4 days)
In short: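 The CML line […] (ATCC: CRL-3343) was cultured in RPMI-1640 with 10% heat-inactivated FBS and 1% Pen-Strep at 37° C. Cells were seeded at about 10,000 per 200 μL in 96-well plates, and test compound was dispensed 2 hours later at eight concentrations in duplicate. Viability was measured as ATP luminescence with CellTiter-Glo. Untreated cells (0.2% DMSO) defined 100% proliferation, and IC50 values came from four-parameter logistic fits.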

MOLM-13 = assay: Proliferation inhibition (CellTiter-Glo) in MOLM-13 cells; details: Homo sapiens, 96 h, MOLM-13 AML cells, heterozygous FLT3-ITD, IC50 (4 days)
In short: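 MOLM-13 human AML cells, heterozygous for FLT3-ITD, were grown in RPMI-1640 with 10% heat-inactivated FBS and 1% Pen-Strep. About 10,000 cells in 200 μL were seeded per well of 96-well plates. After 2 hours, compounds from DMSO stocks were dispensed at eight concentrations in duplicate, with 0.2% DMSO as the untreated control. Viability was read as CellTiter-Glo ATP luminescence, and IC50 was obtained from a four-parameter logistic fit.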

Row | SMILES | IC50 (MV-4-11) [nM] | IC50 (K-562) [nM] | IC50 (MOLM-13) [nM]
1 | CCc1nc(C(N)=O)c(Nc2cc(F)cc(O[C@@H](C)CNC(=O)[C@H](C)N(C)C(=O)/C=C/CN(C)C)c2)nc1N(C)C [Compound 153, 5-(dimethylamino)-3-((3-(((S)-1-((S)-2-((E)-4-(dimethylamino)-N-methylbut-2-enamido)propanamido)propan-2-yl)oxy)-5-fluorophenyl)amino)-6-ethylpyrazine-2-carboxamide] | 1 to 10 | > 500 | 10 to 100
2 | C=CC(=O)N(C)[C@@H](C)C(=O)NCCc1cc(Nc2nc(NC3CCOCC3)c(CC)nc2C(N)=O)cc(OC)c1 [Compound 109, 6-ethyl-3-[3-methoxy-5-[2-[[(2S)-2-[methyl(prop-2-enoyl)amino]propanoyl]amino]ethyl]anilino]-5-(tetrahydropyran-4-ylamino)pyrazine-2-carboxamide] | 1 to 10 | > 500 | 1 to 10
3 | C#CC(=O)NCC#Cc1cccc(Nc2nc(NC3CCOCC3)c(CC)nc2C(N)=O)c1 [Compound 13, 6-Ethyl-3-((3-(3-propiolamidoprop-1-yn-1-yl)phenyl)amino)-5-((tetrahydro-2H-pyran-4-yl)amino)pyrazine-2-carboxamide] | 10 to 100 | 100 to 500 | 10 to 100
4 | CC#CC(=O)NCCCOc1cccc(Nc2nc(NC3CCOCC3)c(CC)nc2C(N)=O)c1 [Compound 8, 3-((3-(3-(But-2-ynamido)propoxy)phenyl)amino)-6-ethyl-5-((tetrahydro-2H-pyran-4-yl)amino)pyrazine-2-carboxamide] | > 500 | > 500 | 100 to 500
5 | C=CC(=O)NCCCC(=O)NCCc1cc(Nc2nc(NC3CCOCC3)c(CC)nc2C(N)=O)cc(OC)c1 [Compound 28, 3-((3-(2-(4-Acrylamidobutanamido)ethyl)-5-methoxyphenyl)amino)-6-ethyl-5-((tetrahydro-2H-pyran-4-yl)amino)pyrazine-2-carboxamide] | 100 to 500 | > 500 | 100 to 500
6 | Cc1nc(C(N)=O)c(Nc2cccc(OCCCNC(=O)[C@H](C)N(C)C(=O)/C=C/CN(C)C)c2)nc1NC1CCOCC1 [Compound 132, (S,E)-3-((3-(3-(2-(4-(dimethylamino)-N-methylbut-2-enamido)propanamido)propoxy)phenyl)amino)-6-methyl-5-((tetrahydro-2H-pyran-4-yl)amino)pyrazine-2-carboxamide] | < 1 | > 500 | 1 to 10
7 | CCc1nc(C(=O)NC)c(Nc2cccc(CCNC(=O)C(C)N(C)C(=O)/C=C/CN(C)C)c2)nc1NC1CCOCC1 (stereo not drawn) [Compound 152, (E)-3-((3-(2-(2-(4-(dimethylamino)-N-methylbut-2-enamido)propanamido)ethyl)phenyl)amino)-6-ethyl-N-methyl-5-((tetrahydro-2H-pyran-4-yl)amino)pyrazine-2-carboxamide] | > 500 | > 500 | > 500
8 | C=CS(=O)(=O)NCCCNc1cc(Nc2nc(NC3CCOCC3)c(CC)nc2C(N)=O)ccn1 [Compound 27, 6-Ethyl-5-((tetrahydro-2H-pyran-4-yl)amino)-3-((2-((3-(vinylsulfonamido)propyl)amino)pyridin-4-yl)amino)pyrazine-2-carboxamide] | 10 to 100 | > 500 | 10 to 100
9 | C#CC(=O)NCCNc1cc(Nc2nc(NC3CCOCC3)c(CC)nc2C(N)=O)ccn1 [Compound 21, 6-Ethyl-3-((2-((2-propiolamidoethyl)amino)pyridin-4-yl)amino)-5-((tetrahydro-2H-pyran-4-yl)amino)pyrazine-2-carboxamide] | 10 to 100 | 100 to 500 | 10 to 100
10 | C#CC(=O)NCCCOc1cccc(Nc2nc(NC3CCOCC3)c(CC)nc2C(N)=O)c1 [Compound 7, 6-Ethyl-3-((3-(3-propiolamidopropoxy)phenyl)amino)-5-((tetrahydro-2H-pyran-4-yl)amino)pyrazine-2-carboxamide] | 10 to 100 | 100 to 500 | 1 to 10
11 | CCc1nc(C(N)=O)c(Nc2cccc(OCCCNC(=O)[C@H](C)N(C)C(=O)/C=C/CN(C)C)c2)nc1N(CC)CC [Compound 141, (S,E)-5-(diethylamino)-3-((3-(3-(2-(4-(dimethylamino)-N-methylbut-2-enamido)propanamido)propoxy)phenyl)amino)-6-ethylpyrazine-2-carboxamide] | < 1 | > 500 | < 1
12 | C=CC(=O)N(C)CCC(=O)NCCc1cc(Nc2nc(NC3CCOCC3)c(CC)nc2C(N)=O)cc(OC)c1 [Compound 34, 6-Ethyl-3-((3-methoxy-5-(2-(3-(N-methylacrylamido)propanamido)ethyl)phenyl)amino)-5-((tetrahydro-2H-pyran-4-yl)amino)pyrazine-2-carboxamide] | 1 to 10 | > 500 | 10 to 100
13 | CCc1nc(C(N)=O)c(Nc2cccc(OCCCNC(=O)[C@H](C)N(C)C(=O)/C=C/CN(C)C)c2)nc1N(C)CC [Compound 146, (S,E)-3-((3-(3-(2-(4-(dimethylamino)-N-methylbut-2-enamido)propanamido)propoxy)phenyl)amino)-6-ethyl-5-(ethyl(methyl)amino)pyrazine-2-carboxamide] | < 1 | > 500 | 1 to 10
14 | CCc1nc(C(N)=O)c(Nc2cccc(OCCNC(=O)[C@H](C)N(C)C(=O)/C=C/CN(C)C)c2)nc1NC1CCOCC1 [Compound 39, 3-[3-[2-[[(2S)-2-[[(E)-4-(dimethylamino)but-2-enoyl]-methyl-amino]propanoyl]amino]ethoxy]anilino]-6-ethyl-5-(tetrahydropyran-4-ylamino)pyrazine-2-carboxamide] | < 1 | > 500 | 1 to 10
15 | C=CC(=O)N(C)[C@@H](C)C(=O)NCCCOc1cccc(Nc2nc(NC3CCOCC3)c(CC)nc2C(N)=O)c1 [Compound 36, 6-ethyl-3-[3-[3-[[(2S)-2-[methyl(prop-2-enoyl)amino]propanoyl]amino]propoxy]anilino]-5-(tetrahydropyran-4-ylamino)pyrazine-2-carboxamide] | < 1 | > 500 | 1 to 10
16 | CC#CC(=O)N(C)CCC(=O)NCCc1cc(Nc2nc(NC3CCOCC3)c(CC)nc2C(N)=O)cc(OC)c1 [Compound 35, 3-[3-[2-[3-[but-2-ynoyl(methyl)amino]propanoylamino]ethyl]-5-methoxy-anilino]-6-ethyl-5-(tetrahydropyran-4-ylamino)pyrazine-2-carboxamide] | 10 to 100 | > 500 | 10 to 100
17 | CCc1nc(C(N)=O)c(Nc2cccc(OCCCNC(=O)[C@H](C)N(C)C(=O)/C=C/CN(C)C)c2)nc1NC [Compound 119, (S,E)-3-((3-(3-(2-(4-(dimethylamino)-N-methylbut-2-enamido)propanamido)propoxy)phenyl)amino)-6-ethyl-5 (methylamino)pyrazine-2-carboxamide] | 1 to 10 | > 500 | 1 to 10
18 | CCc1nc(C(N)=O)c(Nc2cccc(CCNC(=O)C(C)(C)N(C)C(=O)/C=C/CN(C)C)c2)nc1C [Compound 229, (E)-3-((3-(2-(2-(4-(dimethylamino)-N-methylbut-2-enamido)-2-methylpropanamido)ethyl)phenyl)amino)-6-ethyl-5-methylpyrazine-2-carboxamide] | > 500 | > 500 | > 500
19 | CCc1nc(C(N)=O)c(Nc2cc(CCNC(=O)[C@H](C(C)C)N(C)C(=O)/C=C/CN(C)C)cc(OC)c2)nc1NC1CCOCC1 [Compound 131, (S,E)-3-((3-(2-(2-(4-(dimethylamino)-N-methylbut-2-enamido)-3-methylbutanamido)ethyl)-5-methoxyphenyl)amino)-6-ethyl-5-((tetrahydro-2H-pyran-4-yl)amino)pyrazine-2-carboxamide] | 1 to 10 | > 500 | 10 to 100
20 | C=CS(=O)(=O)N(C)[C@@H](C)C(=O)NCC#Cc1cccc(Nc2nc(NC3CCOCC3)c(CC)nc2C(N)=O)c1 [Compound 19, (S)-6-Ethyl-3-((3-(3-(2-(N-methylvinylsulfonamido)propanamido)prop-1-yn-1-yl)phenyl)amino)-5-((tetrahydro-2H-pyran-4-yl)amino)pyrazine-2-carboxamide] | > 500 | > 500 | > 500
21 | CCc1nc(C(N)=O)c(Nc2cccc(CCNC(=O)C3(N(C)C(=O)/C=C/CN(C)C)CCC3)c2)nc1C [Compound 210, (E)-3-((3-(2-(1-(4-(dimethylamino)-N-methylbut-2-enamido)cyclobutane-1-carboxamido)ethyl)phenyl)amino)-6-ethyl-5-methylpyrazine-2-carboxamide] | 10 to 100 | > 500 | > 500
